Test results taken from ChEMBL document CHEMBL3352074, “Novel ROCK inhibitors for the treatment of pulmonary arterial hypertension” (Bioorg Med Chem Lett, 2014).

Experiments:
[1] = AUC (0 to 6 hrs) in mouse plasma at 1 mg/kg, it; type: ADME, organism-based; parameters: time < 6 hr, dose 1 mg/kg, route endotracheal; conditions: inhaled or intranasal
[2] = AUC (0 to 6 hrs) in mouse plasma at 1 mg/kg, iv; type: ADME, organism-based; parameters: time < 6 hr, dose 1 mg/kg, route intravenous
[3] = Drug concentration in Balb/C mouse lung at 1 mg/kg, it after 0.5 hrs; type: ADME, organism-based; parameters: dose 1 mg/kg, route endotracheal; conditions: inhaled or intranasal, read-out: Drug uptake
[4] = Plasma concentration in Balb/C mouse at 1 mg/kg, iv after 3 hrs; type: ADME, organism-based; parameters: dose 1 mg/kg, route intravenous
[5] = Plasma concentration in Balb/C mouse at 1 mg/kg, iv after 0.5 hrs; type: ADME, organism-based; parameters: dose 1 mg/kg, route intravenous
[6] = AUC (0 to 6 hrs) in mouse lung at 1 mg/kg, it; type: ADME, organism-based; parameters: time < 6 hr, dose 1 mg/kg, route endotracheal; conditions: inhaled or intranasal
[7] = Drug concentration in Balb/C mouse lung at 1 mg/kg, it after 3 hrs; type: ADME, organism-based; parameters: dose 1 mg/kg, route endotracheal; conditions: inhaled or intranasal, read-out: Drug uptake
[8] = Plasma concentration in Balb/C mouse at 1 mg/kg, it after 0.5 hrs; type: ADME, organism-based; parameters: dose 1 mg/kg, route endotracheal; conditions: inhaled or intranasal
[9] = Plasma concentration in Balb/C mouse at 1 mg/kg, it after 3 hrs; type: ADME, organism-based; parameters: dose 1 mg/kg, route endotracheal; conditions: inhaled or intranasal
[10] = AUC (0 to 6 hrs) in mouse lung at 1 mg/kg, iv; type: ADME, organism-based; parameters: time < 6 hr, dose 1 mg/kg, route intravenous
[11] = Drug concentration in Balb/C mouse lung at 1 mg/kg, iv after 0.5 hrs; type: ADME, organism-based; parameters: dose 1 mg/kg, route intravenous; conditions: read-out: Drug uptake
[12] = Drug concentration in Balb/C mouse lung at 1 mg/kg, iv after 3 hrs; type: ADME, organism-based; parameters: dose 1 mg/kg, route intravenous; conditions: read-out: Drug uptake
[13] = Apparent permeability from apical to basolateral side across human Caco2 cells; type: ADME, cell-based; conditions: Caco-2

c1cc2c(N3CCNCC3)nc(-c3ccc4[nH]ncc4c3)nc2cn1
AUC(0-t) at 6 h [1]: 0.302 µM·h
AUC(0-t) at 6 h [2]: 0.372 µM·h
concentration at 0.5 h [3]: 32500 nM
concentration at 3 h [4]: 10 nM
concentration at 0.5 h [5]: 400 nM
AUC(0-t) at 6 h [6]: 16 µM·h
concentration at 3 h [7]: 1900 nM
concentration at 0.5 h [8]: 500 nM
concentration at 3 h [9]: 20 nM
AUC(0-t) at 6 h [10]: 3.01 µM·h
concentration at 0.5 h [11]: 2000 nM
concentration at 3 h [12]: 200 nM

c1ccc2c(N3CCNCC3)nc(-c3ccc4[nH]ncc4c3)nc2c1
AUC(0-t) at 6 h [1]: 0.665 µM·h
AUC(0-t) at 6 h [2]: 0.642 µM·h
Papp A→B [13]: 5.65 ×10⁻⁶ cm/s
AUC(0-t) at 6 h [6]: 9.31 µM·h
AUC(0-t) at 6 h [10]: 5.92 µM·h
